These results are taken from patent US20110281869A1, “TETRAHYDROISOQUINOLINES AS ANTIMALARIAL AGENTS” (priority 2008, published 2011).

Usually IC50 stands for the midpoint of a concentration-inhibition curve.

Each structure is given as a SMILES string. Some results are limits rather than exact numbers.

For one assay, the system named is P. falciparum K1. In words: Plasmodium falciparum in vitro assay ([3H] hypoxanthine incorporation). It counts as cell-based. To be noted: Plasmodium falciparum; erythrocytic stages, strain K1 resistant to chloroquine and pyrimethamine, human red cells; read-out: IC50 (nM) on K1. On the procedure:
In vitro antimalarial activity: Plasmodium falciparum in vitro assay In vitro activity against erythrocytic stages of P. falciparum is determined using a [^3H] hypoxanthine incorporation assay. One strain resistant to chloroquine and pyrimethamine (P. falciparum K1) is used in the assays, and all test compounds are compared for activity with the standard drugs chloroquine (sigma C6628) and artemisinin (sigma-36, 159-3). Compounds are diluted in DMSO to 1 mM and added to parasite cultures incubated in RPMI 1640 medium without hypoxanthine, supplemented with HEPES (5.94 g/L), NaHCO3 (2.1 g/L), neomycin (100 U/mL), Albumax (5 g/L) and washed human red cells at 2.5% hematocrit (0.3% parasitaemia). Seven serial doubling dilutions of each drug are prepared in 96-well microtitre plates and incubated in a humidifying atmosphere at 37° C.; 4% CO2, 3% O2, 93% N2.
After 48 h, 50 μl of [^3H] hypoxanthine (0.5 μCi) is added to each well of a plate. The plates are incubated for a further 24 h under the same conditions. The plates are then harvested with a Betaplate cell harvester (Wallac) and washed with distilled water. The dried filters are inserted into a plastic foil with 10 mL of scintillation fluid, and counted in a Betaplate liquid scintillation counter. IC50 values are calculated from sigmoidal inhibition curves using Microsoft Excel.
On to `O=C([C@H](Cc1ccccc1)N(Cc1ccc(-c2ccccn2)cc1)C(=O)C=Cc1ccc(C(F)(F)F)cc1)N1CCc2cc(F)ccc2C1` [Example 10, (S)—N-[1-Benzyl-2-(6-fluoro-3,4-dihydro-1H-isoquinolin-2-yl)-2-oxo-ethyl]-N-(4-pyridin-2-yl-benzyl)-3-(4-trifluoromethyl-phenyl)-acrylamide], for which the IC50 turned out to be 14 nM.
`CN1CCN(c2ccc(CN(C(=O)C=Cc3ccc(C(F)(F)F)cn3)[C@@H](Cc3ccccc3)C(=O)N3CCc4ccccc4C3)cc2)CC1` [Example 211, (S)—N-[1-Benzyl-2-(3,4-dihydro-1H-isoquinolin-2-yl)-2-oxo-ethyl]-N-[4-(4-methyl-piperazin-1-yl)-benzyl]-3-(5-trifluoromethyl-pyridin-2-yl)-acrylamide]: the half-inhibitory concentration (IC50) is 82 nM.
In the case of `COc1ccc(C=CC(=O)N(Cc2ccc(-c3ccncc3)cc2)[C@@H](Cc2ccccc2)C(=O)N2CCc3ccccc3C2)nn1` [Example 239, (S)—N-[1-Benzyl-2-(3,4-dihydro-1H-isoquinolin-2-yl)-2-oxo-ethyl]-3-(6-methoxy-pyridazin-3-yl)-N-(4-pyridin-4-yl-benzyl)-acrylamide], the IC50 was 9 nM.
With `Cc1c(C=CC(=O)N(Cc2ccc(-c3ccncc3)cc2)[C@@H](Cc2ccccc2)C(=O)N2CCc3ccccc3C2)cnn1C` [Example 250, (S)—N-[1-Benzyl-2-(3,4-dihydro-1H-isoquinolin-2-yl)-2-oxo-ethyl]-3-(1,5-dimethyl-1H-pyrazol-4-yl)-N-(4-pyridin-4-yl-benzyl)-acrylamide], the IC50 turned out to be 2 nM.
`Cc1nn(C)c(C)c1C=CC(=O)N(Cc1ccc(-c2cnccn2)cc1)[C@@H](Cc1ccccc1)C(=O)N1CCc2ccccc2C1` [Example 119, (S)—N-[1-Benzyl-2-(3,4-dihydro-1H-isoquinolin-2-yl)-2-oxo-ethyl]-N-(4-pyrazin-2-yl-benzyl)-3-(1,3,5-trimethyl-1H-pyrazol-4-yl)-acrylamide]: the IC50 worked out at 5 nM.
Regarding `Cn1cc(CC(C(=O)N2CCc3ccccc3C2)N(Cc2ccc(-c3ccncc3)cc2)C(=O)C=Cc2ccc(C(F)(F)F)cc2)cn1` (racemic) [Example 80, rac-N-[2-(3,4-Dihydro-1H-isoquinolin-2-yl)-1-(1-methyl-1H-pyrazol-4-ylmethyl)-2-oxo-ethyl]-N-(4-pyridin-4-yl-benzyl)-3-(4-trifluoromethyl-phenyl)-acrylamide], the IC50 was 107 nM.
The same measure, in the same setting: with `Cc1nc(C)c(C=CC(=O)N(Cc2ccc(-c3ccccn3)cc2)[C@@H](Cc2ccccc2)C(=O)N2CCc3ccccc3C2)s1` [Example 51, (S)—N-[1-Benzyl-2-(3,4-dihydro-1H-isoquinolin-2-yl)-2-oxo-ethyl]-3-(2,4-dimethyl-thiazol-5-yl)-N-(4-pyridin-2-yl-benzyl)-acrylamide] the figure was 17 nM; with `O=C(C(Cc1ncccn1)N(Cc1ccc(-c2ccncc2)cc1)C(=O)C=Cc1ccc(C(F)(F)F)cc1)N1CCc2ccccc2C1` (racemic) [Example 86, rac-N-[2-(3,4-Dihydro-1H-isoquinolin-2-yl)-2-oxo-1-pyrimidin-2-ylmethyl-ethyl]-N-(4-pyridin-4-yl-benzyl)-3-(4-trifluoromethyl-phenyl)-acrylamide], 162 nM.
On to `O=C([C@H](Cc1ccccc1)N(Cc1ccc(-c2ccccn2)cc1)C(=O)C=Cc1ccc(C(F)(F)F)nc1)N1CCc2cc(F)ccc2C1` [Example 78, (S)—N-[1-Benzyl-2-(6-fluoro-3,4-dihydro-1H-isoquinolin-2-yl)-2-oxo-ethyl]-N-(4-pyridin-2-yl-benzyl)-3-(6-trifluoromethyl-pyridin-3-yl)-acrylamide], for which the IC50 was 52 nM.
As to `Cc1nn(C)c(C)c1C=CC(=O)N(Cc1ccc(-n2ccnn2)cc1)[C@@H](Cc1ccccc1)C(=O)N1CCc2ccccc2C1` [Example 157, (S)—N-[1-Benzyl-2-(3,4-dihydro-1H-isoquinolin-2-yl)-2-oxo-ethyl]-N-(4-[1,2,3]-triazol-1-yl-benzyl)-3-(1,3,5-trimethyl-1H-pyrazol-4-yl)-acrylamide], the IC50 was determined as 2 nM.
For the compound `COc1ccc2c(c1)CN(C(=O)[C@H](Cc1ccccc1)N(Cc1ccc(-c3ccccn3)cc1)C(=O)C=Cc1ccc(C(F)(F)F)cc1)CC2` [Example 69, (S)—N-[1-Benzyl-2-(7-methoxy-3,4-dihydro-1H-isoquinolin-2-yl)-2-oxo-ethyl]-N-(4-pyridin-2-yl-benzyl)-3-(4-trifluoromethyl-phenyl)-acrylamide], the IC50 worked out at 12 nM.
For the compound `Cc1c(C=CC(=O)N(Cc2ccc(-c3ncccn3)cc2)[C@@H](Cc2ccccc2)C(=O)N2CCc3ccccc3C2)cnn1C` [Example 99, (S)—N-[1-Benzyl-2-(3,4-dihydro-1H-isoquinolin-2-yl)-2-oxo-ethyl]-3-(1,5-dimethyl-1H-pyrazol-4-yl)-N-(4-pyrimidin-2-yl-benzyl)-acrylamide], the IC50 came out at 29 nM.
For `C[C@@H]1CC[C@H]2[C@@H](C)C(=O)O[C@@H]3O[C@@]4(C)CC[C@@H]1[C@]32OO4` [Artemisinin, artemisinin, reference compound], the IC50 came to 2 nM.
As to `COc1ccc(C=CC(=O)N(Cc2ccc(N3CCOCC3)cc2)[C@@H](Cc2ccccc2)C(=O)N2CCc3ccccc3C2)cn1` [Example 220, (S)—N-[1-Benzyl-2-(3,4-dihydro-1H-isoquinolin-2-yl)-2-oxo-ethyl]-3-(6-methoxy-pyridin-3-yl)-N-(4-morpholin-4-yl-benzyl)-acrylamide], the IC50 amounted to 10 nM.
Consider `Cn1nccc1CC(C(=O)N1CCc2ccccc2C1)N(Cc1ccc(-c2ccncc2)cc1)C(=O)C=Cc1ccc(C(F)(F)F)cc1` (racemic) [Example 84, rac-N-[2-(3,4-Dihydro-1H-isoquinolin-2-yl)-1-(2-methyl-2H-pyrazol-3-ylmethyl)-2-oxo-ethyl]-N-(4-pyridin-4-yl-benzyl)-3-(4-trifluoromethyl-phenyl)-acrylamide], for which the IC50 was 84 nM.
For `Cc1c(C=CC(=O)N(Cc2ccc(-c3ccccn3)cc2)[C@@H](Cc2ccccc2)C(=O)N2CCc3ccccc3C2)cnn1C` [Example 65, (S)—N-[1-Benzyl-2-(3,4-dihydro-1H-isoquinolin-2-yl)-2-oxo-ethyl]-3-(1,5-dimethyl-1H-pyrazol-4-yl)-N-(4-pyridin-2-yl-benzyl)-acrylamide], the IC50 worked out at 10 nM.
Consider `O=C([C@H](Cc1ccccc1)N(Cc1ccc(-n2cncn2)cc1)C(=O)C=Cc1ccc(Cl)nc1)N1CCc2ccccc2C1` [Example 167, (S)—N-[1-Benzyl-2-(3,4-dihydro-1H-isoquinolin-2-yl)-2-oxo-ethyl]-3-(6-chloro-pyridin-3-yl)-N-(4-[1,2,4]-triazol-1-yl-benzyl)-acrylamide], for which the IC50 stood at 8 nM.
In the case of `O=C([C@H](Cc1ccccc1)N(Cc1ccccn1)C(=O)C=Cc1ccc(C(F)(F)F)cc1)N1CCc2ccccc2C1` [Example 6, (S)—N-[1-Benzyl-2-(3,4-dihydro-1H-isoquinolin-2-yl)-2-oxo-ethyl]-N-pyridin-2-ylmethyl-3-(4-trifluoromethyl-phenyl)-acrylamide], the IC50 was 25 nM.
For the compound `O=C([C@H](Cc1ccccc1)N(Cc1ccc(-c2cncnc2)cc1)C(=O)C=Cc1ccc(Cl)nc1)N1CCc2ccccc2C1` [Example 228, (S)—N-[1-Benzyl-2-(3,4-dihydro-1H-isoquinolin-2-yl)-2-oxo-ethyl]-3-(6-chloro-pyridin-3-yl)-N-(4-pyrimidin-5-yl-benzyl)-acrylamide], the IC50 stood at 8.5 nM.
On to `Cn1ccc(CC(C(=O)N2CCc3ccccc3C2)N(Cc2ccc(-c3ccncc3)cc2)C(=O)C=Cc2ccc(C(F)(F)F)cc2)n1` (racemic) [Example 82, rac-N-[2-(3,4-Dihydro-1H-isoquinolin-2-yl)-1-(1-methyl-1H-pyrazol-3-ylmethyl)-2-oxo-ethyl]-N-(4-pyridin-4-yl-benzyl)-3-(4-trifluoromethyl-phenyl)-acrylamide], for which the IC50 turned out to be 24 nM.
Still for that read-out and setting: with `Cc1nc(C=CC(=O)N(Cc2ccc(-c3cncnc3)cc2)[C@@H](Cc2ccccc2)C(=O)N2CCc3ccccc3C2)c(C)o1` [Example 253, (S)—N-[1-Benzyl-2-(3,4-dihydro-1H-isoquinolin-2-yl)-2-oxo-ethyl]-3-(2,5-dimethyl-oxazol-4-yl)-N-(4-pyrimidin-5-yl-benzyl)-acrylamide] the figure was 70 nM.

Still in this assay, the particulars now being: erythrocytic stages, strain K1 resistant to chloroquine and pyrimethamine, human red cells; read-out: IC50 (nM) on K1.
`COc1cc(C=CC(=O)N(Cc2ccc(-c3ccccn3)cc2)[C@@H](Cc2ccccc2)C(=O)N2CCc3ccccc3C2)cc(OC)c1` [Example 14, (S)—N-[1-Benzyl-2-(3,4-dihydro-1-H-isoquinolin-2-yl)-2-oxo-ethyl]-3-(3,5-dimethoxy-phenyl)-N-(4-pyridin-2-yl-benzyl)-acrylamide]: the IC50 worked out at 18 nM.
With `O=C([C@H](Cc1ccccc1)N(Cc1ccc(-c2cc[n+]([O-])cc2)cc1)C(=O)C=Cc1ccc(C(F)(F)F)cc1)N1CCc2ccccc2C1` [Example 254, (S)—N-[1-Benzyl-2-(3,4-dihydro-1-H-isoquinolin-2-yl)-2-oxo-ethyl]-N-[4-(1-oxy-pyridin-4-yl)-benzyl]-3-(4-trifluoromethyl-phenyl)-acrylamide], the IC50 was less than 7.8 nM.
For the compound `O=C([C@H](Cc1ccccc1)N(Cc1ccc(-c2ccccn2)cc1)C(=O)C=Cc1cccc(Cl)c1Cl)N1CCc2ccccc2C1` [Example 25, (S)—N-[1-Benzyl-2-(3,4-dihydro-1-H-isoquinolin-2-yl)-2-oxo-ethyl]-3-(2,3-dichloro-phenyl)-N-(4-pyridin-2-yl-benzyl)-acrylamide], the IC50 came out at 13 nM.
